Laboratory results taken from EP0603240B1, “SAFENING HERBICIDAL PYRAZOLYLSULFONYLUREAS” (priority 1991, dated 1993).

Experiments:
Assay type in all cases: in vivo
[1] = system: barnyardgrass (Echinochloa crusgalli); experiment: Example 19, Procedure II: Herbicide No. 1 + ERADICANE EXTRA with added antidotes
Description: (§1) Containers were filled and compacted with a fumigated silt loam top soil to a depth of about 1.3 cm from the top of the container. A first container was designated as an untreated control, a second container was designated as a herbicide control, and a third container was designated as a herbicide + antidote test container. Each of the containers was seeded with a crop species. A measured amount of herbicide dispersed or dissolved in acetone was applied to a measured quantity of soil. To this same quantity of soil treated with herbicide, there was added a measured amount of antidote dispersed or dissolved in acetone. The quantity of soil treated with the herbicide and antidote was thoroughly mixed to incorporate the herbicide and antidote in the soil uniformly. The seed bed in the third container of soil was covered with the soil treated with the herbicide and antidote and the container was leveled. For each test series, the seed beds of the first and second containers were likewise covered by soil layers. the cover layer of the first container was not treated with herbicide or antidote.
(§2) The containers were then placed on a bench in a greenhouse and sub-irrigated as required for the duration of the test. […] Plant response is measured in terms of percent injury. Antidote efficacy is indicated as the difference in plant injury by the herbicide(s) without the antidote and with the antidote.
(§3) This procedure is the same as Procedure I, but modified in the manner that after incorporation of the chemicals (herbicide and antidote) the containers with the covered seedbed were treated with an initial overhead irrigation equivalent to 0.6 cm rainfall, then subsequently sub-irrigated as required on greenhouse benches.
(§4) In the series of greenhouse tests described below, for routine screening purposes the herbicide/antidote compositions were tested in crop/weed combinations involving corn as the crop and either or both of the weeds barnyardgrass (Echinochloa crusgalli), a monocotyledonous weed, and velvetleaf (Abutilon theophrasti), a dicotyledonous weed. In the tables below, these weeds are indicated by the symbols "BYG" and "VL", respectively.
(§5) In the test reported in this example, the herbicidal composition was similar to that used in Example 16 in that Herbicide No. 1 was combined with EPTC (Herbicide No. 4) as a co-herbicide and the antidotes included Nos. 1, 2, 7, 13 and 15. However, in this test the EPTC was introduced as a formulation of ERADICANE (EPTC + the antidote R-25788, i.e., Antidote No. 1) at an application rate of 8.96 kg/ha. Thus, in this test two antidotes were present, viz. R-25788 and one of the auxilliary antidotes, No. 2, 13 and 15.
(§6) The test reported in this example was performed in the same manner and with the same antidotes used in Example 18, the only difference being the substitution of the commercial herbicidal product ERADICANE® EXTRA for ERADICANE®. ERADICANE EXTRA is a formulation containing both an antidote, i.e., R-29148 (Antidote No. 5 herein), and an extender, dietholate.

[2] = system: velvetleaf (Abutilon theophrasti); experiment: as above
Description: as §1, §2, §3, §4, §5, §6

[3] = system: barnyardgrass (Echinochloa crusgalli); experiment: Example 7, Procedure II: Herbicide No. 1 + metolachlor (No. 12) with antidotes
Description: as §1, §2, §3, §4
(§7) In this example, Procedure II described above was followed. The data from the tests in this example is shown in Table 6 and represents averages of duplicate replications.
(§8) The tests in this example followed the same procedure and antidotes used in Example 6. However, Herbicide No. 12 (metolachlor) was used as the co-herbicide with Herbicide No. 1.

[4] = system: velvetleaf (Abutilon theophrasti); experiment: as above
Description: as §1, §2, §3, §4, §7, §8

[5] = system: barnyardgrass (Echinochloa crusgalli); experiment: Example 18, Procedure II: Herbicide No. 1 + ERADICANE (EPTC + R-25788) with auxiliary antidotes
Description: as §1, §2, §3, §4, §5
(§9) Test procedures were those of Procedure II above.

[6] = system: velvetleaf (Abutilon theophrasti); experiment: as above
Description: as §1, §2, §3, §4, §5, §9

[7] = system: barnyardgrass (Echinochloa crusgalli); experiment: Example 10, Procedure II: Herbicide No. 1 + propachlor (No. 5) with antidotes
Description: as §1, §2, §3, §4
(§10) In this test, the safening effect of various antidotes on the herbicidal combination of Herbicide No. 1 and another α-chloroacetanilide co-herbicide, propachlor, (Herbicide No. 5) was investigated. Propachlor is the active ingredient in the commercial herbicide RAMROD®. Procedure II was also used in this test as in the preceding example.

[8] = system: velvetleaf (Abutilon theophrasti); experiment: as above
Description: as §1, §2, §3, §4, §10

[9] = system: barnyardgrass (Echinochloa crusgalli); experiment: Example 11, Procedure II: Herbicide No. 1 + metazachlor (No. 14) with antidotes
Description: as §1, §2, §3, §4
(§11) In this example, yet another α-chloroacetanilide co-herbicide, metazachlor (Herbicide No. 14) was combined with Herbicide No. 1 for investigation of the effect of various safeners on that composition. Metazachlor is the active ingredient in the commercial herbicide BUTISAN® S, used here as a 500 g/L formulation.

[10] = system: velvetleaf (Abutilon theophrasti); experiment: as above
Description: as §1, §2, §3, §4, §11

corn = experiment: Example 8, Procedure II: Herbicide No. 1 + butachlor (No. 9) with antidotes
Description: as §1, §2, §3
In this test, the efficacy of the same five antidotes used in Examples 6 and 7 was investigated in compositions comprising Herbicide No. 1 and as a co-herbicide, butachlor (Herbicide No. 9), active ingredient in MACHETE® herbicide, a leading commercial rice herbicide. The test procedure used in this example was the same as that in Examples 6 and 7.

[11] = Herbicide No.1 0.56 kg/ha + ERADICANE EXTRA 8.96 kg/ha, antidote 2.24 kg/ha
[12] = Herbicide No.1 0.56 kg/ha + ERADICANE EXTRA 8.96 kg/ha, antidote 8.96 kg/ha
[13] = Herbicide No.1 1.12 kg/ha + ERADICANE EXTRA 8.96 kg/ha, antidote 2.24 kg/ha
[14] = Herbicide No.1 1.12 kg/ha + ERADICANE EXTRA 8.96 kg/ha, antidote 8.96 kg/ha
[15] = Herbicide No.1 0.14 + No.12 3.36 kg/ha + antidote 2.24 kg/ha
[16] = Herbicide No.1 0.14 + No.12 3.36 kg/ha + antidote 8.96 kg/ha
[17] = Herbicide No.1 0.56 + No.12 3.36 kg/ha + antidote 2.24 kg/ha
[18] = Herbicide No.1 0.56 + No.12 3.36 kg/ha + antidote 8.96 kg/ha
[19] = Herbicide No.1 0.56 kg/ha + ERADICANE 8.96 kg/ha, antidote 2.24 kg/ha
[20] = Herbicide No.1 0.56 kg/ha + ERADICANE 8.96 kg/ha, antidote 8.96 kg/ha
[21] = Herbicide No.1 1.12 kg/ha + ERADICANE 8.96 kg/ha, antidote 2.24 kg/ha
[22] = Herbicide No.1 1.12 kg/ha + ERADICANE 8.96 kg/ha, antidote 8.96 kg/ha
[23] = Herbicide No.1 0.14 kg/ha + Herbicide No.5 4.48 kg/ha, antidote rate 2.24 kg/ha
[24] = Herbicide No.1 0.14 kg/ha + Herbicide No.5 4.48 kg/ha, antidote rate 8.96 kg/ha
[25] = Herbicide No.1 0.56 kg/ha + Herbicide No.5 4.48 kg/ha, antidote rate 2.24 kg/ha
[26] = Herbicide No.1 0.56 kg/ha + Herbicide No.5 4.48 kg/ha, antidote rate 8.96 kg/ha
[27] = Herbicide No.1 0.56 kg/ha + Herbicide No.14 3.36 kg/ha, antidote rate 2.24 kg/ha
[28] = Herbicide No.1 0.56 kg/ha + Herbicide No.14 3.36 kg/ha, antidote rate 8.96 kg/ha
[29] = Herbicide No.1 1.12 kg/ha + Herbicide No.14 3.36 kg/ha, antidote rate 2.24 kg/ha
[30] = Herbicide No.1 1.12 kg/ha + Herbicide No.14 3.36 kg/ha, antidote rate 8.96 kg/ha
[31] = Herbicide No.1 0.14 + No.9 2.24 kg/ha + antidote 2.24 kg/ha
[32] = Herbicide No.1 0.14 + No.9 2.24 kg/ha + antidote 8.96 kg/ha
[33] = Herbicide No.1 0.56 + No.9 2.24 kg/ha + antidote 2.24 kg/ha
[34] = Herbicide No.1 0.56 + No.9 2.24 kg/ha + antidote 8.96 kg/ha

With O=C(C(Cl)Cl)N1CCOC12CCCCC2 [compound 7] the “% Injury BYG” value [1, 11] was 85%, the “% Injury BYG” value [1, 12] was 85% and the “% Injury BYG” value [1, 13] was 90%. The “% Injury BYG” value [1, 14] was 85%, the “% Injury VL” value [2, 11] was 75% and the “% Injury VL” value [2, 12] was 80%. The “% Injury VL” value [2, 13] was 75%, the “% Injury VL” value [2, 14] was 85% and the “% Injury BYG” value [3, 15] was 100%. The “% Injury BYG” value [3, 16] was 100%, the “% Injury BYG” value [3, 17] was 100% and the “% Injury BYG” value [3, 18] was 100%. The “% Injury VL” value [4, 15] was 70%, the “% Injury VL” value [4, 16] was 65% and the “% Injury VL” value [4, 17] was 85%. The “% Injury VL” value [4, 18] was 85%, the “% Injury BYG” value [5, 19] was 90% and the “% Injury BYG” value [5, 20] was 85%. The “% Injury BYG” value [5, 21] was 85%, the “% Injury BYG” value [5, 22] was 85% and the “% Injury VL” value [6, 19] was 75%. For the same molecule, the “% Injury VL” value [6, 20] was 80%, the “% Injury VL” value [6, 21] was 70% and the “% Injury VL” value [6, 22] was 75%. For the same molecule, the “% Injury BYG” value [7, 23] was 99%, the “% Injury BYG” value [7, 24] was 98% and the “% Injury BYG” value [7, 25] was 98%. For the same molecule, the “% Injury BYG” value [7, 26] was 96%, the “% Injury VL” value [8, 23] was 70% and the “% Injury VL” value [8, 24] was 75%. The “% Injury VL” value [8, 25] was 95%, the “% Injury VL” value [8, 26] was 80% and the “% Injury BYG” value [9, 27] was 99%. The “% Injury BYG” value [9, 28] was 100%, the “% Injury BYG” value [9, 29] was 99% and the “% Injury BYG” value [9, 30] was 99%. For the same molecule, the “% Injury VL” value [10, 27] was 80%, the “% Injury VL” value [10, 28] was 85% and the “% Injury VL” value [10, 29] was 90%. For the same molecule, the “% Injury VL” value [10, 30] was 90%, the “% Injury Corn” value (corn; [31]) was 5% and the “% Injury Corn” value (corn; [32]) was 10%. For the same molecule, the “% Injury Corn” value (corn; [33]) was 25% and the “% Injury Corn” value (corn; [34]) was 20%.
In the case of CC1(C)OC(c2ccco2)CN1C(=O)C(Cl)Cl (stereo not shown) [compound 15], the “% Injury BYG” value [1, 11] was 90%, the “% Injury BYG” value [1, 12] was 85% and the “% Injury BYG” value [1, 13] was 85%. The “% Injury BYG” value [1, 14] was 90%, the “% Injury VL” value [2, 11] was 70% and the “% Injury VL” value [2, 12] was 75%. For the same molecule, the “% Injury VL” value [2, 13] was 85%, the “% Injury VL” value [2, 14] was 75% and the “% Injury BYG” value [3, 15] was 100%. The “% Injury BYG” value [3, 16] was 100%, the “% Injury BYG” value [3, 17] was 100% and the “% Injury BYG” value [3, 18] was 100%. The “% Injury VL” value [4, 15] was 70%, the “% Injury VL” value [4, 16] was 65% and the “% Injury VL” value [4, 17] was 75%. The “% Injury VL” value [4, 18] was 70%, the “% Injury BYG” value [5, 19] was 90% and the “% Injury BYG” value [5, 20] was 90%. For the same molecule, the “% Injury BYG” value [5, 21] was 93%, the “% Injury BYG” value [5, 22] was 85% and the “% Injury VL” value [6, 19] was 80%. For the same molecule, the “% Injury VL” value [6, 20] was 85%, the “% Injury VL” value [6, 21] was 80% and the “% Injury VL” value [6, 22] was 65%. For the same molecule, the “% Injury BYG” value [7, 23] was 98%, the “% Injury BYG” value [7, 24] was 90% and the “% Injury BYG” value [7, 25] was 93%. The “% Injury BYG” value [7, 26] was 85%, the “% Injury VL” value [8, 23] was 70% and the “% Injury VL” value [8, 24] was 80%. For the same molecule, the “% Injury VL” value [8, 25] was 80%, the “% Injury VL” value [8, 26] was 75% and the “% Injury BYG” value [9, 27] was 100%. The “% Injury BYG” value [9, 28] was 100%, the “% Injury BYG” value [9, 29] was 100% and the “% Injury BYG” value [9, 30] was 100%. For the same molecule, the “% Injury VL” value [10, 27] was 90%, the “% Injury VL” value [10, 28] was 90% and the “% Injury VL” value [10, 29] was 85%. For the same molecule, the “% Injury VL” value [10, 30] was 85%, the “% Injury Corn” value (corn; [31]) was 20% and the “% Injury Corn” value (corn; [32]) was 15%. The “% Injury Corn” value (corn; [33]) was 10% and the “% Injury Corn” value (corn; [34]) was 10%.
